From patent US11066482B2, “Specific plasmin inactivation by anticatalytic antibody” (priority 2017, dated 2021)

Experiments:
[1] = test system: plasmin-mediated fibrinolysis of human fibrin clots; assay: Fibrinolysis of 125I-fibrin human plasma clots with tPA, EACA vs Pi; assay type: biochemical; details: tPA 5 nM, 2.5 h
[2] = test system: fibrinolytic bleeding; assay: Fibrinolytic bleeding assay in vivo (humanized tail bleeding model); design: species or system mice; details: EACA 510 micromole/kg intravenously
Protocol: Anesthetized mice were treated in a randomized, blinded fashion with saline (Control), Pi (100 nmole/kg) or EACA (510 micromole/kg) intravenously. Human plasminogen (100 nmole/kg) and plasminogen activator (80,000 IU/kg) were given over 60 min. Tail bleeding was initiated 40 min. after the infusion. Tails were pre-warmed for 5 mins in 3 mL of 37° C. saline and bleeding was monitored as described.36,37 N=5-6, Means±SE are shown. *p<0.05, **p<0.01; ns, not significant. Kruskal Wallis one way ANOVA, Dunn's corrections.
Fibrinolytic bleeding assays in vivo. Anesthetized mice were treated in a randomized, blinded fashion with saline (Control), Pi (100 nmole/kg) or EACA (510 micromole/kg). Human plasminogen (100 nmole/kg) and plasminogen activator (80,000 IU/kg) were given over 60 min. Tail bleeding started 40 min. after the infusion. Tails were pre-warmed for 5 mins in 3 mL of 37° C. saline as described.(27, 28).
Suppression of fibrinolytic bleeding in vivo. The potential utility of the Pi for suppression of fibrinolytic bleeding was examined in vivo in randomized, blinded studies of surgical arterial and venous hemorrhage.

[3] = target: plasmin-mediated cleavage of factor V (Homo sapiens, UniProt P00747); assay: Factor V cleavage by plasmin, SDS-PAGE; assay type: biochemical; details: EACA 1 mM or Pi 5 ug, 1 hr RT
Protocol: FIGS. 4A-4D show comparative inhibition of factor V cleavage and human clot fibrinolysis (dissolution) by Pi, EACA and a2AP. […] The relative migration of molecular weight standards is shown (kDa). […] Human plasma was clotted with CaCl2 (10 mM) and thrombin (1 U/ml) in the presence of trace amounts of 1251 fibrinogen for 1 h at 37 deg. C. After washing in 1 ml of TBS pH 7.4, tPA (5 nM) was added in the presence of various amounts of Pi (62.5 to 1000 nM), EACA (0.125 mM to 2 mM) or no inhibitor. After 2.5 h the amount of fibrinolysis was determined by measuring the amount of 125I-fibrin dissolved in the supernatant. Means of duplicate observations are shown. […] Clots were formed as above in the presence of human plasminogen (2 uM) and a2AP (1 uM) or Pi (1 uM) and various amounts of tPA (0-10 nM). Clot dissolution was monitored in duplicate over 2 h in microtiter plate wells at A405 nm. […] Human plasma clots were mixed with various concentrations of Pi IgG, Pi Fab and chimeric Pi Fab (25 nM-400 nM) and plasmin was activated by urokinase. The amount of clot lysis was determined as described in Methods.
Factor V cleavage. Human factor V (2 ug, IHFV, Innovative Research) was mixed with plasmin (0.05 ug) for 1 hr at RT in the presence of EACA (1 mM), Pi (5 ug) or a control monoclonal antibody (digoxin, 5 ug). […] Protein bands were detected by staining with Coomassie blue dye.

[4] = in vivo; cited from earlier work
[5] = test system: human plasma clots; assay: Clot lysis assay of Pi IgG, Fab and chimeric Fab, urokinase; assay type: biochemical; details: 25 nM-400 nM, 30 min
Protocol: FIGS. 4A-4D show comparative inhibition of factor V cleavage and human clot fibrinolysis (dissolution) by Pi, EACA and a2AP. […] The relative migration of molecular weight standards is shown (kDa). […] Human plasma was clotted with CaCl2 (10 mM) and thrombin (1 U/ml) in the presence of trace amounts of 1251 fibrinogen for 1 h at 37 deg. C. After washing in 1 ml of TBS pH 7.4, tPA (5 nM) was added in the presence of various amounts of Pi (62.5 to 1000 nM), EACA (0.125 mM to 2 mM) or no inhibitor. After 2.5 h the amount of fibrinolysis was determined by measuring the amount of 125I-fibrin dissolved in the supernatant. Means of duplicate observations are shown. […] Clots were formed as above in the presence of human plasminogen (2 uM) and a2AP (1 uM) or Pi (1 uM) and various amounts of tPA (0-10 nM). Clot dissolution was monitored in duplicate over 2 h in microtiter plate wells at A405 nm. […] The amount of clot lysis was determined as described in Methods.
The effects of Pi IgG, Fab or chimeric Fab were also compared in a clot lysis assay in microtiter plates. […] C. was monitored at 405 nm. The percent clot dissolution at 30 min. was determined as the percent change in peak turbidity from baseline=100%×(peak absorbance−30 min. absorbance)/(peak absorbance−baseline absorbance).

[6] = target: Plasmin (Homo sapiens, UniProt P00747); assay: Effect of mouse or chimeric Fab on plasmin activity, S2251; assay type: biochemical; details: plasmin 25 nM, Fab 0-200 nM, S2251 0.5 mM
Protocol: FIGS. 2A-2D show comparative inhibition of plasmin activity by Pi EACA and a2AP. […] The percent residual activity of plasmin as a function of the log concentration of inhibitor is shown. […] Human plasmin (100 nM, Hematologic Technologies, Inc.) was mixed with or without Pi (50 nM) in the presence of the substrate S2251 (0.1 to 4 mM). The initial rate of substrate cleavage (6 min.) was monitored at A405. Data were plotted and analyzed using Michaelis-Menten kinetics by the Graphpad Prism Program. Means (duplicate observations) are shown and are representative of 4 separate experiments. […] The means of duplicate observations are shown. […] Plasmin (25 nM) was mixed with various concentrations (0-200 nM) of mouse Fab or chimeric Fab (cFab) and S2251 (0.5 mM) in TBS buffer pH 7.4. Plasmin activity was measured by the release of paranitroanilide product at A405 over time.
The effects of mouse or chimeric Fab on plasmin activity were examined. Plasmin (25 nM) was mixed with various concentrations (0-200 nM) of mouse Fab or chimeric Fab (cFab) and S2251 (0.5 mM) in TBS buffer pH 7.4. Plasmin activity was measured by the release of paranitroanilide product at A405 over time.

Chain of Plasmin (P00747 97-580 limits assumed): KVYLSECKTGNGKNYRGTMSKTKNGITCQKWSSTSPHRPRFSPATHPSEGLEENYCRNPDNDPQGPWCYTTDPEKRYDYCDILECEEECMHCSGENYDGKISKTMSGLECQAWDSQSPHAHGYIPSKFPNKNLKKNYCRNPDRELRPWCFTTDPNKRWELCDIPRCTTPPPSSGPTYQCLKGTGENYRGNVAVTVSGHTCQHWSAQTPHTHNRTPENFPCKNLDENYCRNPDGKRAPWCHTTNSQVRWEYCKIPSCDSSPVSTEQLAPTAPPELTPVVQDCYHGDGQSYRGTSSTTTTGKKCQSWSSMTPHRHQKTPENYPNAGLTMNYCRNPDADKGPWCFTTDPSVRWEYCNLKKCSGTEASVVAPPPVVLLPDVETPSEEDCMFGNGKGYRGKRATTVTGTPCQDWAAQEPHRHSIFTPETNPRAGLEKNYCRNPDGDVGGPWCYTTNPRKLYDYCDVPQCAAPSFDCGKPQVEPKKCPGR
Chain of Plasmin (P00747 581-810 limits assumed): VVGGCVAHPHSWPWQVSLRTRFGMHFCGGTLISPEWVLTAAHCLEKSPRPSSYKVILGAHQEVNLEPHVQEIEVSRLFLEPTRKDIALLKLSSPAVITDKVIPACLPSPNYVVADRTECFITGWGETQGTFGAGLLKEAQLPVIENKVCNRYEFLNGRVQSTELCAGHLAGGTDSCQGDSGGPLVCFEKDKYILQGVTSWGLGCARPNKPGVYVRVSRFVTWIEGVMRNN
Chain of plasmin-mediated cleavage of factor V (P00747 97-580 limits assumed): as the sequence (P00747 97-580 limits assumed) above
Chain of plasmin-mediated cleavage of factor V (P00747 581-810 limits assumed): as the sequence (P00747 581-810 limits assumed) above

NCCCCCC(=O)O [EACA, epsilon amino caproic acid, reference compound]
fold less potent than the Pi in suppressing fibrinolysis [1]: approximately 5,000 fold
effect on fibrinolysis of human fibrin clots ([1]; Pi 62.5 to 1000 nM, EACA 0.125 mM to 2 mM): diminished fibrinolysis
effect on bleeding time vs saline [2]: did not reduce bleeding time or blood loss
effect on blood loss vs saline [2]: did not reduce bleeding time or blood loss
effect on Factor V cleavage by plasmin [3]: slightly diminished Factor V cleavage

NC[C@H]1CC[C@H](C(=O)O)CC1 [Tranexamic acid, tranexamic acid]
excreted via the urine unchanged [4]: 95%

B1: mouse Fab: Fab fragment of the Pi lacking the Fc domain (antibody, V domains shown)
VH: EVKLLESGGGLVQPGGSLKLSCAASGFDFSRYWMSWVRQAPGKGLEWIGEINPDSSTINYTPSLKDKFIISRDNAKNSLYLQMSKVRSEDTALYYCASYCGYSYDALDCWGQGTSVTVSS
VL: DIQMTQSPSSLSASLGGKVSITCKASQDINKYISWYQHKPGKGPRLLIHYTSTLQPGIPSRFSGSGSGRDYSFSISNLEPEDIATYYCLQYDNLYTFGGGTKLEIK
inhibition of clot lysis by Pi molecular forms [5]: effectively inhibited clot lysis
inhibition of plasmin activity with tripeptide substrate [6]: potently inhibited plasmin activity
